# Patent US8772275B2, “Mediators of hedgehog signaling pathways, compositions and uses related thereto” (Curis, Inc., priority 2001, dated 2014)
# Tested on: Hedgehog pathway
# Assay: Gli-Luc reporter assay in 10T1/2(s12) cells, OCT-SHH stimulated
# Type: cell-based
# Settings: compounds E-V: not from the human-based assay; Gli-Luc assay in 10T1/2(s12) cells
# Protocol: (§1) Compounds to be tested are dissolved in DMSO to a concentration of 10 mM, and stored at −20° C. To activate the Hedgehog pathway in the assay cells, an octylated (lipid-modified) form of the N-terminal fragment of the Sonic Hedgehog protein (OCT-SHH) is used. This N-terminal SHH fragment is produced bacterially. See, for example, Taylor F R, et al., Biochemistry 2001, 40, 4359-71.
# (§2) Compounds may be tested in the “Gli-Luc” assay below, using the cell line 10T1/2(s12), wherein the cells contain a Hedgehog-responsive reporter construct utilizing Luciferase as the reporter gene. In this way, Hedgehog pathway signaling activity can be measured via the Gli-Luc response.
# (§3) 10t1/2(s12) cells are plated in a 96-well micro-titer plate (MTP) at 20,000 cells/well in full medium [DMEM with […]]. Then plates are placed in the incubator for incubation overnight (O/N), at 37° C. and 5% CO2. After 24 h, the medium is replaced with Luciferase-assay medium (DMEM with 0.5% FBS). Compounds are thawed and diluted in assay medium at 3:1000 (about 300-fold) resulting in a starting concentration of about 0.0003 μM to 30 μM.
# (§4) Subsequently, 150 μl each sample is added to the first wells (in triplicate). The MTP samples are then diluted at 3-fold dilutions to a total of seven wells, ultimately resulting in a regiment of seven dilutions in triplicate, for each compound. Next, the protein ligand OCT-SHH is diluted in Luciferase-assay medium and added to each well at a final concentration of […] Plates are then returned to the incubator for further incubation O/N, at 37° C. and 5% CO2. After about 24 h, plates are removed from the incubator and the medium is aspirated/discarded. Wells are washed once with assay buffer [PBS+1 mM Mg^2+ and 1 mM Ca^2+]. Then 50 μl of assay buffer is added to each well. The Luciferase assay reagent is prepared as described by the vendor (LucLite kit from Packard), and 50 μl is added to each well. Plates are incubated at room temperature (RT) for about 30 minutes after which the signals are read, again at RT, on a Topcount (Packard).
row,IC50 [µM],SMILES
1,< 5,Cc1ccccc1OCC(=O)Nc1ccc(Cl)c(-c2nc3ccccc3[nH]2)c1 [E]
2,< 5,Cc1ccc(C(=O)Nc2ccc(Cl)c(-c3nc4ccccc4[nH]3)c2)cc1[N+](=O)[O-] [J]
3,< 5,COc1cc(C(=O)Nc2ccc(Cl)c(-c3nc4ccccc4[nH]3)c2)cc(OC)c1OC [L]

# Tested on: hedgehog signaling pathway
# Assay: Colon cancer cells co-cultured with 10T(S12) reporter cells, luciferase activity
# Type: cell-based
# Settings: 20,000 colon cancer cells mixed with 10,000 10T(S12) cells, 72 hrs incubation
# Protocol: 20,000 colon cancer cells were mixed with 10,000 10T(S12) cells (described above), and the mixture was added to each well in a 96-well plate. A subject compound or control vehicle was added to the culture on the next day. After 72 hrs of incubation, the cells were lysed for measuring the luciferase activity. […] FIG. 35 depicts the comparative inhibition of hedgehog-induced activation in S12 cells for the antibodies 1E6 and 5E1 and compound A, and the comparative inhibition of endogenous hedgehog activity in colon cancer cells for these compositions.
row,SMILES,inhibition of luciferase activity compared to vehicle
1,COc1cc(OC)cc(C(=O)Nc2ccc(Cl)c(-c3nc4ccccc4[nH]3)c2)c1 [Compound A],able to inhibit the lucferase activity

# Tested on: Hedgehog pathway
# Assay: Gli-Luc reporter assay in human embryonic palatal mesenchyme cells, OCT-SHH stimulated
# Type: cell-based
# Settings: human-based Gli-Luc assay, OCT-SHH 1 μg/ml
# Protocol: as §1, §2, §3, §4
# Similar assays were performed using human cell lines (specifically, human embryonic palatal mesenchyme cells, modified with the Gli-Luc construct as described above) in a growth medium of MEM/Sodium Pyruvate w/10% MS, and an assay medium of MEM/Sodium Pyruvate w/0.5% FBS. OCT-SHH was added to reach a final concentration of 1 μg/ml.
row,SMILES,IC50 [µM]
1,O=C(Nc1ccc(Cl)c(-c2nc3ccccc3[nH]2)c1)c1cccnc1 [B],< 0.05
2,O=C(Nc1ccc(Cl)c(-c2nc3ccccc3[nH]2)c1)c1ccc2c(c1)OCCO2 [C],< 0.5
3,COc1cc(OC)cc(C(=O)Nc2ccc(Cl)c(-c3nc4ccccc4[nH]3)c2)c1 [Compound A],< 0.05
4,O=C(Nc1ccc(Cl)c(-c2nc3cc(C(F)(F)F)ccc3[nH]2)c1)c1ccc2c(c1)OCCO2 [W],< 0.01
5,Cc1ccc2nc(-c3cc(NC(=O)c4ccc5c(c4)OCCO5)ccc3Cl)[nH]c2c1C [X],< 0.05
6,COc1ccc(C(=O)Nc2ccc(Cl)c(-c3nc4cc(C)c(C)cc4[nH]3)c2)cc1Cl [Y],< 0.05
7,COc1cc(OC)cc(C(=O)Nc2ccc(Cl)c(-c3nc4c(C)cccc4[nH]3)c2)c1 [Z],< 0.05
